Measured values: US20090137784A1, “Epidermal Growth Factor Receptor Polypeptides and Antibodies” (priority 2005, published 2009)
*: point of attachment. Biotin = O=C1N[C@H]2[C@H](CS[C@H]2CCCCC(=O)*)N1

Tests used:
Assay type in all cases: cell-based
[1] = biological target: T1, heterodimerization of HER2 with EGFR (Homo sapiens, UniProt P00533); test: Co-immunoprecipitation of HER2 with EGFR from HMEC lysates; conditions: HMECs, antiserum 0.1 and 1 μM; FIG. 2
T1 construct: EGFR in each sample was immunoprecipitated from HMEC lysates using an anti-EGFR antibody; endogenous in cells; host or cells: HMEC (human mammary epithelial cells)
Method: Next, we analyzed the amount of HER2 co-immunoprecipitated with EGFR in the presence and absence of rabbit polyclonal antiserum against peptide MGENNT. HMECs were treated as before with the antiserum. EGFR in each sample was immunoprecipitated from HMEC lysates using an anti-EGFR antibody obtained from Santa Cruz Biotechnology, Inc. Immunoprecipitates were resolved by SDS-PAGE and blotted with anti-HER2 antibody (Cell Signaling). The results are depicted in FIG. 2, where N is the non-EGF stimulated negative control, P is the cells with no rabbit antisera incubation, and 0.1 and 1 are the concentrations of rabbit polyclonal antisera in μM.

EGFR [2] = biological target: T2, EGFR (Homo sapiens, UniProt P00533); test: Quantitative Western blot of EGFR tyrosine 1173 phosphorylation in HMECs treated with rabbit polyclonal antisera; conditions: for relative EGFR tyrosine 1173 phosphorylation: HMECs, 2 hours with antisera, then 25 nM EGF for 5 minutes, FIG. 1; for Polyclonal antisera inhibition (EGFR phosphorylation): rabbit polyclonal antisera, 184A1 human mammary epithelial cells
T2 construct: endogenous in cells; host or cells: 184A1 human mammary epithelial cells (parental HMEC); also 24H HMEC line (overexpresses HER2)
Method: Anti-domain II and anti-domain IV rabbit polyclonal antisera were generated against polypeptides LYNPTTYQMD (SEQ ID NO: 1) and MGENNT (SEQ ID NO:4). Briefly, rabbits were injected with one of the peptides, and the resulting antisera were collected. The rabbit sera were purified by ammonium sulfate precipitation followed by desalting. These polyclonal antisera were then used to treat human mammary epithelial cells (HMECs) and to measure the antisera's effect on EGFR tyrosine 1173 phosphorylation by quantitative Western blot analysis. HMECs were grown to 80% confluence and incubated for 2 hours in serum-free media containing various concentrations of the rabbit polyclonal antisera. The cells were then washed and incubated with 25 nM EGF for 5 minutes. The cells were lysed, and the proteins in the lysate were run on a SDS-PAGE gel and transferred onto PDVF membranes. Blots were detected using an anti-EGFR phosphotyrosine 1173 antibody and horseradish peroxidase, and band intensity was quantified using Kodak® 1D 3.5 software. The results are shown in FIG. 1 as relative EGFR tyrosine 1173 phosphorylation in the presence of varying concentrations of polyclonal antisera. The tyrosine phosphorylation in the presence of antiserum has been normalized by total EGFR intensity and tyrosine phosphorylation in the absence of antiserum.
Additional quantitative Western blot analysis was performed to examine EGFR 1173 tyrosine phosphorylation and HER21248 tyrosine phosphorylation in normal, parental HMECs, as well as a 24H HMEC line which overexpresses HER2 (Hendriks et al., Cancer Res. 63:1130-1137, 2003). Western blot analysis was described as above, and the results are depicted in FIGS. 3-6. […] P DII and P DIV are the polyclonal antisera against polypeptides LYNPTTYQMD (SEQ ID NO:1) and MGENNT (SEQ ID NO:4), respectively. For comparison, P 225 is a commercially purchased monoclonal antibody that blocks EGFR ligand binding (Sato et al., Mol. Biol. Med. 1:511-529, 1983). Negative controls are indicated by a (−). […] FIGS. 5 and 6 show relative HER2 1248 tyrosine phosphorylation in parental and 24H HMECs, respectively. The results in FIGS. 3-6 indicate that antibodies that bind to polypeptides LYNPTTYQMD (SEQ ID NO:1) and MGENNT (SEQ ID NO:4) of EGFR can reduce both EGFR and HER2 phosphorylation in normal HMECs, as well as those overexpressing HER2.

EGFR [3] = biological target: T2, EGFR; test: Biotinylated cyclic polypeptides tested for inhibition of EGFR phosphorylation in a model HMEC cell system; conditions: biotinylated cyclic polypeptide
Text: We selected amino acid sequences corresponding to fragments of Domain II and Domain IV of EGFR. The sequence of each polypeptide is shown in the first column of Table 1. The polypeptides were chosen based on their positions on the crystal structures of monomeric and dimeric EGFR (Burgess et al, Mol. Cell. 12:541-552, 2003). Although Domain IV of EGFR is not resolved in the dimer crystal structure, it is believed that portions of Domain IV come into contact upon dimerization. […] We generated biotinylated cyclic polypeptides that included each sequence and tested them in a model HMEC cell system. The sequences of the biotinylated cyclic polypeptides are shown in the third column of Table 1. […] For the LYNPTTYQMD polypeptide, the different results obtained from polypeptide and polyclonal antisera inhibition could be due to differences in the quantitative details of the assays, or the polypeptide could have a lower affinity for the receptor than the polyclonal antisera does.

## Biotin-Aha-CMGENNTG-CONH2
[1]
  HER2 co-immunoprecipitated with EGFR: less HER2 is co-immunoprecipitated with EGFR
EGFR [2]
  relative EGFR tyrosine 1173 phosphorylation: decrease the tyrosine phosphorylation of EGFR
  Polyclonal antisera inhibition (EGFR phosphorylation): Yes
EGFR [3]
  Peptide Inhibition (EGFR phosphorylation): Yes

## CAHYIDGPHC [Biotin-GCAHYIDGPHCG-CONH2]
EGFR [3]
  Peptide Inhibition (EGFR phosphorylation): Yes

## LYNPTTYQMD [Biotin-GCGLYNPTTYQMDGCG-CONH2]
EGFR [3]
  Peptide Inhibition (EGFR phosphorylation): No

## CRNVSRGREC [Biotin-GCRNVSRGRECG- CONH2]
EGFR [3]
  Peptide Inhibition (EGFR phosphorylation): Yes

## Biotin-GCGLYNPTTYQMDGCG-NH2 (cysteine pairing not given here)
EGFR [2]
  relative EGFR tyrosine 1173 phosphorylation: decrease the tyrosine phosphorylation of EGFR
  Polyclonal antisera inhibition (EGFR phosphorylation): Yes

## LVWKYADAG [Biotin-GCLVWKYADAGCG-CONH2]
EGFR [3]
  Peptide Inhibition (EGFR phosphorylation): Yes
